Consider 15 compounds from US20210380548A1, “Fused [1,2,4]Thiadiazine Derivatives Which Act as KAT Inhibitors of the MYST Family” (CTxT Pty Limited, priority 2017, published 2021).

For assay [1], the target named is T1, HBO-KAT7 (Homo sapiens, UniProt O95251).
T1 construct: encoding amino acid residues 325 to 611 (Uniprot 095251-1) of human KAT7; made in house; host or cells: E. coli BL21 DE3 RIL
The experiment in a line: Revised Acetyltransferase Biochemical Assay, KAT7. As to conditions: Table 9 (HBO-KAT7), 1 μM Acetyl coenzyme A.

The target of assay [2] is T2, MOF-KAT8 (Homo sapiens, UniProt Q9H7Z6).
T2 sequence (Q9H7Z6 177-447): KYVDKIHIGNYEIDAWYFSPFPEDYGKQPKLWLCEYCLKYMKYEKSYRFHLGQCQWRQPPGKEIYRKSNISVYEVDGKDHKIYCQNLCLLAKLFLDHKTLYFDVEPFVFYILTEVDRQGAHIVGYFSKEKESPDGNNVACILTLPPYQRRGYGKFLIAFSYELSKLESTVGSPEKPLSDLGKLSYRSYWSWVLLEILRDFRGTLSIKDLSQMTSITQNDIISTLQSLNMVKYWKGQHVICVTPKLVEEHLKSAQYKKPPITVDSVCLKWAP
The experiment in a line: Revised Acetyltransferase Biochemical Assay, KAT8.

For another assay, the target named is T3, TIP60-KAT5 (Homo sapiens, UniProt Q92993).
T3 construct: encoding amino acid residues 2 to 461 (Uniprot Q92993-2) of human KAT5 isoform; made in house; host or cells: E. coli BL21 DE3
The experiment in a line: Revised Acetyltransferase Biochemical Assay, KAT5. The settings on record: 10 nM KAT5, 1 μM AcCoA, 100 nM histone H4, 90 min.

The next assay addresses T4, MOZ-KAT6A (Homo sapiens, UniProt Q92794, A567V).
T4 construct: encoding amino acid residues 507 to 778 (Uniprot Q92794-1) of human KAT6A; made in house; host or cells: E. coli BL21 DE3
The experiment in a line: Revised Acetyltransferase Biochemical Assay, KAT6A. As to conditions: Table 8 (MOZ-KAT6A), 1 μM Acetyl coenzyme A.

The subject of assay [3] is histone H3 Lysine 14 acetylation (HBO1 mediated) in U2OS cells. The experiment in a line: Histone H3 Lysine 14 Acetylation Biomarker Assay (384-well, U2OS). Type of assay: cell-based. The settings on record: Homo sapiens, serum free medium, 24 hours incubation. The gist of the method: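 U2OS cells in serum-free medium treated with compound 24 h; DMSO and 10 μM reference inhibitor as 0% and 100% controls. Fixed cells immunostained for H3K14ac (AlexaFluor 488) with Hoechst nuclear mask, imaged by high-content analysis; per-cell intensity converted to % inhibition, IC50 by four-parameter logistic fit.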

A further assay addresses T5, QKF-KAT6B (Homo sapiens, UniProt Q8WYB5).
T5 construct: purchased SignalChem K315-381BG
The experiment in a line: Revised Acetyltransferase Biochemical Assay, KAT6B. As to conditions: 8 nM KAT6B, 1 μM AcCoA, 100 nM histone H3.1, 90 min. From the text:
KAT6B was obtained from SignalChem, catalog ID: K315-381BG

Assay [4] has as its system histone H3K23 acetylation (KATE mediated) in U2OS cells. The experiment in a line: Histone H3 Lysine 23 Acetylation Biomarker Assay (U2OS). Type of assay: cell-based. As to conditions: Homo sapiens, 96 well, 24 hours incubation. In short, it runs like this:
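U2OS cells were treated with compound for 24 h, then fixed and immunostained for H3K23ac with Hoechst nuclear counterstain. Per-nucleus Alexa647 intensity was quantified by high-content imaging and converted to % inhibition against DMSO and 10 μM reference-inhibitor controls. IC50 was derived from a four-parameter logistic fit.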

Assay [5] relates to histone H2A.Z Lysine 7 acetylation (TIP60 mediated) in U2OS cells. The experiment in a line: H2A.Z Lysine 7 Acetylation Biomarker Assay (384-well, U2OS). As to conditions: Homo sapiens, serum free medium, 24 hours incubation. Type of assay: cell-based. The gist of the method:
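U2OS cells (3,000/well) were treated with compound for 24 h after a serum-free wash, then fixed. They were stained with anti-H2A.ZK7ac, an AlexaFluor 488 secondary and Hoechst. High-content imaging gave mean nuclear intensity per cell, converted to percent inhibition against on-plate controls, and IC50 came from a four-parameter logistic fit.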

Assay [6] deals with T2, MOF-KAT8. The experiment in a line: Acetyltransferase biochemical assay (AlphaScreen), KAT8. As to conditions: Table 4 (MOF-KAT8); 0.4 μM Acetyl coenzyme A, histone H4, 20 nM enzyme. For orientation: In Alpha technology, singlet oxygen from a donor bead excites a nearby acceptor bead.
Assay [7] concerns the target T1, HBO-KAT7. The experiment in a line: Acetyltransferase biochemical assay (AlphaScreen), KAT7. As to conditions: Table 3 (HBO-KAT7); 0.4 μM Acetyl coenzyme A, histone H3.1, 40 nM enzyme.

T4 sequence (Q92794 507-778 A567V limits assumed): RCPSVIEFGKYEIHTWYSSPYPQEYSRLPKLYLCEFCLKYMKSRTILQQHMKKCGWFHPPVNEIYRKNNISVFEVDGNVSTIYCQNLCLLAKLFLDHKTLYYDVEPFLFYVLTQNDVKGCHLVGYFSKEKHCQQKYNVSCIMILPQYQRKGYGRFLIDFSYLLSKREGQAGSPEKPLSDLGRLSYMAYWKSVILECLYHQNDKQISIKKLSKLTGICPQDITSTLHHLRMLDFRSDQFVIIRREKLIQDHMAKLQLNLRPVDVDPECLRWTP
T1 sequence (O95251 with tags, fused parts or gaps): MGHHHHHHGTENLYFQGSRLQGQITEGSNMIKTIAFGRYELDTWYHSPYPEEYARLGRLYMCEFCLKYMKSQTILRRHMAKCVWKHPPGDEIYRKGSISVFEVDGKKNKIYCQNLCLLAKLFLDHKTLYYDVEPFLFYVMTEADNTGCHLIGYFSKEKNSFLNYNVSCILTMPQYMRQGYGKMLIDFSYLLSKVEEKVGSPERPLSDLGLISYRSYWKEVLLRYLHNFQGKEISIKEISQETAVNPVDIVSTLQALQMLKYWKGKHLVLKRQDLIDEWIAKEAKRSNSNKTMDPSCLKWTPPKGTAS
T5 sequence (Q8WYB5 whole entry): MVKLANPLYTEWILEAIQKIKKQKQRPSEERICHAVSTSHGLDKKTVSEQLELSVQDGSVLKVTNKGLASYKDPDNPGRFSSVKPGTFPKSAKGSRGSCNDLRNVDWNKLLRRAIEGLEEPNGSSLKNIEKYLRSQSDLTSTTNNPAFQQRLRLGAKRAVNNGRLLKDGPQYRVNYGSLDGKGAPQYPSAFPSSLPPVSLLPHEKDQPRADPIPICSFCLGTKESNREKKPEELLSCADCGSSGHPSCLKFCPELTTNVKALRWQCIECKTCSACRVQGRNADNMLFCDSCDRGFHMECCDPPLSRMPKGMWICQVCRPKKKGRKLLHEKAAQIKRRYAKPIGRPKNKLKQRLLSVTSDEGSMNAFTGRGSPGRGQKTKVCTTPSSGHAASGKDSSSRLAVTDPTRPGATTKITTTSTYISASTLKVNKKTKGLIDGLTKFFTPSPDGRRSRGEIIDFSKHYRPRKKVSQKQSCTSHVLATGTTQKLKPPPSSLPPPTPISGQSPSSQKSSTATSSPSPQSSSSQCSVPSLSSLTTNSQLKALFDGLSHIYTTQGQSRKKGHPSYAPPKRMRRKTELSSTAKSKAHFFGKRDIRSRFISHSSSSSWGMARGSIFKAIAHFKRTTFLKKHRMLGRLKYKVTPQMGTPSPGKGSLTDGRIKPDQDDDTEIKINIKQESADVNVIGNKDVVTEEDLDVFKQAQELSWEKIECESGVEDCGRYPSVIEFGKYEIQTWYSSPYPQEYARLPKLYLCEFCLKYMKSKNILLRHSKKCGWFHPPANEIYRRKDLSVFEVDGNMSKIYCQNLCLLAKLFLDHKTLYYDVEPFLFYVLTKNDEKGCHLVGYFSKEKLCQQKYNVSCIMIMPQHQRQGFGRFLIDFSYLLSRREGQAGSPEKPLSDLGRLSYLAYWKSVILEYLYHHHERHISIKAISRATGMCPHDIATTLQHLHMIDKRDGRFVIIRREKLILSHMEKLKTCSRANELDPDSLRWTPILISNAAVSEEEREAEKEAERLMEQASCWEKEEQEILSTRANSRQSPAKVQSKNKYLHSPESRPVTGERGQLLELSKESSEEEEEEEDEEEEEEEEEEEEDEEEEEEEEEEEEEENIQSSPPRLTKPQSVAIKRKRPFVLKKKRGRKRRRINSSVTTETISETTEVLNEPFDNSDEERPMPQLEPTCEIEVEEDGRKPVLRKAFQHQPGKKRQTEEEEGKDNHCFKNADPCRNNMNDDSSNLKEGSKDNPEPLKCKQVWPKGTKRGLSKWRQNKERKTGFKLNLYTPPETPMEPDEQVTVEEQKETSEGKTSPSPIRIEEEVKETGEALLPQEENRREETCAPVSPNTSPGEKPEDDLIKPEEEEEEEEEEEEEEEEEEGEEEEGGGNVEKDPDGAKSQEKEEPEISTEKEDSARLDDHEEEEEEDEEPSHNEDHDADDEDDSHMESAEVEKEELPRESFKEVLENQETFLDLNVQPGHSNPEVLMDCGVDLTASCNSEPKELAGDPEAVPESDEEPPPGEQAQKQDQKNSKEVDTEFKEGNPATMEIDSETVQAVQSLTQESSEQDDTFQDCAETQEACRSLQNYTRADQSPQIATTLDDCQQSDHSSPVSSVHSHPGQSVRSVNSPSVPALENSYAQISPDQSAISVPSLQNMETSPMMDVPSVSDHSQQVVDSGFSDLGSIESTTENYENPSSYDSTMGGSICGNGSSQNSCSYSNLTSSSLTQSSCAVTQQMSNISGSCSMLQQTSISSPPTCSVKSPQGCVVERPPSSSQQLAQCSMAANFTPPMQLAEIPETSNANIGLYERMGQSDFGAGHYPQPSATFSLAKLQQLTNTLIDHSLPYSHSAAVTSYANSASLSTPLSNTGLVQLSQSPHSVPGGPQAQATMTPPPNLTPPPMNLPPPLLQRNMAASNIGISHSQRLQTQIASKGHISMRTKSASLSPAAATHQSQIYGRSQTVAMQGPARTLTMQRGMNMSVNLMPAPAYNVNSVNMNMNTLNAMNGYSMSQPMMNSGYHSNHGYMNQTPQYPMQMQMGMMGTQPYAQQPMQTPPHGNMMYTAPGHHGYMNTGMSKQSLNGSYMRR
T3 sequence (Q92993 2-461 isoform Q92993-2): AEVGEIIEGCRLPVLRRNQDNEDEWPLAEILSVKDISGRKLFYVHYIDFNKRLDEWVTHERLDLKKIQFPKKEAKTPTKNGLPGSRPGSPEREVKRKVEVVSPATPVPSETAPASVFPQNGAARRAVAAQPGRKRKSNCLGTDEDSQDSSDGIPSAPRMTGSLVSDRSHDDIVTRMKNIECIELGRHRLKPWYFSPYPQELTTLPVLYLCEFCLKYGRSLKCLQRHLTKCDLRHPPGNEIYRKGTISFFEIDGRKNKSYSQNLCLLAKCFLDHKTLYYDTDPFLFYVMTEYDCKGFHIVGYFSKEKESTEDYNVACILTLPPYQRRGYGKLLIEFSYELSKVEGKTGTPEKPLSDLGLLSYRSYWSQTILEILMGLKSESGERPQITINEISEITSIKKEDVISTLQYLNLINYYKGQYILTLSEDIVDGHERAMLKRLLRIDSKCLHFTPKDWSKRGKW

A word on the IC50: it is the midpoint of a concentration-inhibition curve. Consider `O=C(NCC(c1ccccc1)c1nccs1)C1=Nc2ccc(Cl)cc2S(=O)(=O)N1` (stereo not shown) [Example 166], for which the IC50 at HBO-KAT7 [1] was found to be 183 nM; on MOF-KAT8 [2], 36800 nM; at TIP60-KAT5 it was 714 nM; against MOZ-KAT6A, 7 nM; in assay [3], 611 nM; on QKF-KAT6B it was 72 nM. Besides, the IC50 in assay [4] stood at 93 nM; in [5] it was 5350 nM.

For `O=C(NCCC1CCCCC1)C1=Nc2ccc(-c3c[nH]nn3)cc2S(=O)(=O)N1` [Example 201], the IC50 at HBO-KAT7 [1] was 56500 nM; at TIP60-KAT5, 43700 nM; against MOZ-KAT6A it was 268 nM; in assay [3] it was above 40000 nM; against QKF-KAT6B, 5260 nM; in assay [4], above 10000 nM. In [5], this compound had an IC50 above 40000 nM.

For `O=C(NCC(c1ccccc1)c1nncs1)C1=Nc2ccc(I)cc2S(=O)(=O)N1` (stereo not shown) [Example 168], the IC50 was 621 nM at HBO-KAT7 [1]; 26500 nM against MOF-KAT8 [2]; 458 nM against TIP60-KAT5; 8 nM at MOZ-KAT6A; 6440 nM in assay [3]; 3390 nM at MOF-KAT8 [6]. Further, the values for the IC50 (on QKF-KAT6B; in assay [4]; in assay [5]) were 37 nM, 525 nM and 8850 nM, respectively.

In the case of `CN(CC(c1ccccc1)c1ncco1)C(=O)C1=Nc2ccc(I)cc2S(=O)(=O)N1` (stereo not shown) [Example 203], the half-maximal inhibitory concentration (IC50) on HBO-KAT7 [1] was 1670 nM; against MOF-KAT8 [2] it was 115000 nM; against TIP60-KAT5, 3750 nM; against MOZ-KAT6A, 427 nM; in assay [3], 2260 nM; at MOF-KAT8 [6], 103000 nM. For the same compound, the IC50 at QKF-KAT6B was 3310 nM; in assay [4], above 10000 nM; in [5] it was above 40000 nM.

Regarding `O=C(NCC(c1cccc(Cl)c1)c1ncco1)C1=Nc2ccc(I)cc2S(=O)(=O)N1` (stereo not shown) [Example 163], the IC50 was 115 nM at HBO-KAT7 [1]; 14700 nM against MOF-KAT8 [2]; 221 nM against TIP60-KAT5; 17 nM against MOZ-KAT6A; 892 nM in assay [3]; 9780 nM at MOF-KAT8 [6]. The IC50 against QKF-KAT6B came out at 117 nM; in assay [4] it was 453 nM; in [5], 1520 nM.

Consider `O=C(NCCc1ccccc1-c1n[nH]c(=O)o1)C1=Nc2ccc(I)cc2S(=O)(=O)N1` [Example 172], for which the IC50 at HBO-KAT7 [1] was 41 nM; on MOF-KAT8 [2], 6100 nM; against TIP60-KAT5 it was 25 nM; at MOZ-KAT6A, 5 nM; in assay [3], 2870 nM; on MOF-KAT8 [6], 5130 nM. Moreover, the IC50 is 281 nM at QKF-KAT6B, above 10000 nM in assay [4] and 2090 nM in [5].

For `O=C(NCC(c1ccccc1)c1nnc(CC(F)(F)F)o1)C1=Nc2ccc(I)cc2S(=O)(=O)N1` (stereo not shown) [Example 181], the IC50 against HBO-KAT7 [1] stood at 320 nM; on MOF-KAT8 [2], 31200 nM; against TIP60-KAT5, 123 nM; on MOZ-KAT6A, 32 nM; in assay [3] it was 35300 nM; against MOF-KAT8 [6] it was 104000 nM. The values for the half-maximal inhibitory concentration (IC50) (on QKF-KAT6B; in assay [4]; in assay [5]) were 77 nM, above 10000 nM and above 40000 nM, respectively.

As to `Cc1cc(O)cc(C(CNC(=O)C2=Nc3ccc(Cl)cc3S(=O)(=O)N2)c2ncco2)c1` (stereo not shown) [Example 221, 7-Chloro-N-(2-(3-hydroxy-5-methylphenyl)-2-(oxazol-2-yl)ethyl)-2H-benzo[e][1,2,4]thiadiazine-3-carboxamide 1,1-dioxide], the IC50 on HBO-KAT7 [1] is 72 nM; against TIP60-KAT5, 1570 nM; on MOZ-KAT6A it was 572 nM; in assay [3], 1660 nM; against QKF-KAT6B it was 4340 nM; in [4] it was above 10000 nM. The same compound showed an IC50 in assay [5] of 6870 nM.

As to `O=C(NCC(F)(F)c1ccccc1OC(F)F)C1=Nc2ccc(I)cc2S(=O)(=O)N1` [Example 231, N-(2-(2-(difluoromethoxy)phenyl)-2,2-difluoroethyl)-7-iodo-2H-benzo[e][1,2,4]thiadiazine-3-carboxamide 1,1-dioxide], the IC50 at HBO-KAT7 [1] came to 143 nM; against MOF-KAT8 [2], 6530 nM; at TIP60-KAT5 it was 306 nM; against MOZ-KAT6A it was 100 nM; in assay [3] it was 3880 nM; against QKF-KAT6B, 3240 nM. Moreover, the IC50 in assay [4] was above 10000 nM; in assay [5] it was 4520 nM.

For the compound `O=C(NCC(c1ccccc1)c1ncco1)C1=Nc2ccc(-c3c[nH]nn3)cc2S(=O)(=O)N1` (stereo not shown) [Example 213, N-(2-(Oxazol-2-yl)-2-phenylethyl)-7-(1H-1,2,3-triazol-4-yl)-2H-benzo[e][1,2,4]thiadiazine-3-carboxamide 1,1-dioxide], the IC50 was 111 nM on HBO-KAT7 [1]; 15200 nM at MOF-KAT8 [2]; 193 nM at TIP60-KAT5; 2 nM against MOZ-KAT6A; 4940 nM in assay [3]; 3540 nM on MOF-KAT8 [6]. For the same compound, the half-inhibitory concentration (IC50) at QKF-KAT6B was 22 nM; in [4] it was 116 nM; in [5] it was 29500 nM.

Consider `O=C(NCC(c1ccccc1)c1ncco1)C1=Nc2ccc(Cl)cc2S(=O)(=O)N1` (stereo not shown) [Example 182], for which the IC50 is 237 nM against HBO-KAT7 [1]; 24500 nM at MOF-KAT8 [2]; 284 nM at TIP60-KAT5; 6 nM on MOZ-KAT6A; 488 nM in [3]; 50000 nM on MOF-KAT8 [6]. The IC50 on QKF-KAT6B amounted to 59 nM; in assay [4], 84 nM; in [5], 8100 nM.

As for `Cc1cccc(C(CNC(=O)C2=Nc3ccc(I)cc3S(=O)(=O)N2)c2ncco2)c1` (stereo not shown) [Example 233, 7-iodo-N-(2-(oxazol-2-yl)-2-(m-tolyl)ethyl)-2H-benzo[e][1,2,4]thiadiazine-3-carboxamide 1,1-dioxide], the IC50 was found to be 14 nM against HBO-KAT7 [1]; 9250 nM against MOF-KAT8 [2]; 38 nM against HBO-KAT7 [7]; 154 nM against TIP60-KAT5; 13 nM against MOZ-KAT6A; 3200 nM in [3]. Besides, the IC50 against MOF-KAT8 [6] came to 6130 nM; at QKF-KAT6B, 254 nM; in [5], 1990 nM.

On to `O=C(NCC(c1cccc(O)c1)c1ncco1)C1=Nc2ccc(I)cc2S(=O)(=O)N1` (stereo not shown) [Example 215, N-(2-(3-Hydroxyphenyl)-2-(oxazol-2-yl)ethyl)-7-iodo-2H-benzo[e][1,2,4]thiadiazine-3-carboxamide 1,1-dioxide], for which the IC50 is 20 nM at HBO-KAT7 [1]; 5720 nM against MOF-KAT8 [2]; 25 nM against TIP60-KAT5; 4 nM on MOZ-KAT6A; 221 nM in assay [3]; 8740 nM on MOF-KAT8 [6]. Moreover, the IC50 against QKF-KAT6B amounted to 65 nM; in assay [4], 953 nM; in [5] it was 4440 nM.

Turning to `COCCC(CNC(=O)C1=Nc2ccc(I)cc2S(=O)(=O)N1)c1ccccc1` (stereo not shown) [Example 220, 7-Iodo-N-(4-methoxy-2-phenylbutyl)-2H-benzo[e][1,2,4]thiadiazine-3-carboxamide 1,1-dioxide], the IC50 is 214 nM against HBO-KAT7 [1]; 26800 nM at MOF-KAT8 [2]; 1430 nM on TIP60-KAT5; 20 nM on MOZ-KAT6A; 917 nM in assay [3]; 134 nM on QKF-KAT6B. The figures for the IC50 in assay [4] and in [5] were 540 nM and 7810 nM, respectively.

With `COc1cc(C)cc(C(CNC(=O)C2=Nc3ccc(I)cc3S(=O)(=O)N2)c2ncco2)c1` (stereo not shown) [Example 196, 7-iodo-N-(2-(3-methoxy-5-methylphenyl)-2-(oxazol-2-yl)ethyl)-2H-benzo[e][1,2,4]thiadiazine-3-carboxamide 1,1-dioxide], the IC50 was 25 nM against HBO-KAT7 [1]; 78600 nM on MOF-KAT8 [2]; 818 nM against TIP60-KAT5; 80 nM against MOZ-KAT6A; 95 nM in assay [3]; 991 nM at QKF-KAT6B. The IC50 came out at 1010 nM in [4] and 882 nM in assay [5].
